Test results taken from patent publication US20210332139A1, “MODULATION OF LEUKOCYTE ACTIVITY IN TREATMENT OF NEUROINFLAMMATORY DEGENERATIVE DISEASE” (Leuvas Therapeutics, priority 2013, published 2021).
“And” between values parts separate entries of the source, which are not always exact repeats. Equal values may be shown once.

Columns and labels:
[1] = system: Bend.3 endothelial cell line; assay: Adhesion molecule expression on Bend.3 endothelial cells (immunofluorescence); type: cell-based, mouse; design: key: −: VCAM-1 and selectins were not expressed (indicated by -, Table 2); constitutively expressed at low levels on endothelial cells (indicated by +/−, some vessels were positive for ICAM-1, Table 2); an increase of ICAM-1 expression (indicated by +, Table 2); settings: Bend.3 cells, 10 μM Aβ1-42 oligomers, 18 h
Experimental: We performed in vitro experiments to study the effect of soluble Aβ1-42 oligomers on the endothelial cell line Bend.3, derived from mouse cerebral cortex purchased by ATCC& Cell Biology Collection (CRL-2299TM).
Briefly, Bend.3 were cultured at a concentration of 20×10^3/ml on a glass coverslip in 24-well plates containing DMEM supplemented with 10% Fetal Calf Serum (FCS). Cells were stimulated with 10 μM Aβ 1-42, for 18 h in DMEM with 1% FCS. […] positive control, cells were treated with 25 U/ml of TNFα for 18 h in DMEM with 1% FCS. Bend.3 were rinsed with PBS and fixed with 4% PFA for 10 minutes. Cells were washed with PBS incubated with blocking buffer for 1 h at RT° C. Primary antibodies were diluted in 1% Bovine Serum Albumin (BSA) PBS. Cells were incubated overnight at 4° C. with 50 μg/ml anti-VCAM (hybridoma MK2.7), 10 μg/ml anti-ICAM (hybridoma YN1.7), 0.5 μg/ml anti-CD31 (370700, Invitrogen), 5 μg/ml anti-E-selectin (hybridoma RME-1) and 1.5 μg/ml anti-P-selectin (CD62P, BD Pharmigen). The day after, cells were rinsed 2 times with PBS and then incubated with 7.5 μg/ml biotinylated secondary antibody (rabbit anti-rat, T0226, VectorLab) for 1 h at RT° C. Cells were rinsed 2 times with PBS and incubated with 25 μg/ml Avidin-TexasRed (A2006, Vector Lab) for 1 h at RT° C. in the dark. After rinsing in PBS, cells were incubated with 1 μg/ml Dapi (D9542, Sigma-Aldrich, St. Louis, Mo.), for 5 minutes in the dark. Finally, glass coverslip was transferred on glass slides and mounted with Dako medium (S3023, DAKO NORTH AMERICA, Carpinteria, Calif.). Glass slides were kept at 4° C. in the dark and acquired by LEICA fluorescence microscopy (DM6000B, LEICA, Germany).
We analyzed the expression of VCAM-1, ICAM-1, E- and P-selectin on Bend.3 after Aβ1-42 oligomers stimulation. TNF-α stimulation, which is well known to up-regulate the adhesion molecules expression, was used as positive control. We evaluated a dose-response effect of Aβ1-42 soluble oligomers on Bend.3 cells, ranging from 1 to 10 μM after 6 or 18 hours of treatment. After 18 h of treatment with 10 μM Aβ we observed a significant up-regulation of […] compared to non-stimulated control cells (CTRL) (Table 2). […] ICAM-1 was constitutively expressed at low levels on endothelial cells (indicated by +/−, some vessels were positive for ICAM-1, Table 2), but 18 h treatment with Aβ1-42 led to an increase of ICAM-1 expression (indicated by +, Table 2).

[2] = system: human neutrophils; assay: Rapid human neutrophil adhesion to ICAM-1, inhibition by bocMLF and PTx; type: cell-based; settings: oligomeric Aβ, 2 minutes
Experimental: It is known that one of the receptors for Aβ is the receptor for fMLP, formylpeptide chemotactic receptor (FPR). To evaluate the contribution of this GPCR receptor on Aβ-dependent neutrophil adhesion, we inhibited its function using boc-MLF, a formyl-peptide chemotactic receptor antagonist. Human neutrophils were incubated for 2 minutes with buffer (control) or with oligomeric Aβ. 0.1 μM fMLP was used as a positive control. Values are expressed as the mean counts of bound cells in 0.2 mm^2 from three independent experiments in duplicate. Error bars represent SD. […] To exclude the possibility that rapid adhesion triggering was a consequence of a generic plasma membrane alteration due to the lipophilic nature of Aβ, we evaluated rapid adhesion in lymphocytes, which are known to lack fMLP receptors.

“Abeta 1-42: soluble oligomeric amyloid-beta 1-42 peptide used as stimulus” was tested, and the “CD31 expression (endothelial cell marker)” value [1] was “+”, the E-sel expression [1] was “+” and the ICAM-1 expression [1] was “+”. For the same substance, the P-sel expression [1] was “+”, the VCAM-1 expression [1] was “+” and the “Neutrophil adhesion to ICAM-1, stimulus alone (Ctrl, no inhibitor)” value [2] was 490.4 ± 38.9 bound cells in 0.2 mm^2 and 475.5 ± 40.0 bound cells in 0.2 mm^2.
